Reference: paper PMC4838876, “Multivalent display of minimal Clostridium difficile glycan epitopes mimics antigenic properties of larger glycans” (Nature Communications, 2016)

How the values were obtained:
[1] = test system: mAb 2C5; test: Isothermal titration calorimetry (ITC); assay type: binding, mouse
Description: Figure 7 IM and thermodynamic analysis of glycan–mAb interactions and conformation of 1. (a) IM analysis. The heat maps represent on- and off-rates of mAb 2C5 to 1 (upper) and 3 (lower). (b) Thermograms acquired using 7 μM of mAb 2C5 and titrating 250 μM of 1 (left) or 3 mM of 3 (right) at 25 °C. Thermodynamic parameters were inferred by nonlinear least-square fits of the data points. (c) Summary of thermodynamic parameters for 1 and 3 interacting with mAbs 2C5 and 10A1. Bars represent mean±s.e.m. of two independent measurements. See Supplementary Fig. 6 for details. (d) One-dimensional proton NMR spectrum, and 2D zTOCSY and NOE spectroscopy (NOESY) NMR spectra of 1 showing the coupled protons to the anomeric protons of the five residues with numbering according to the structure shown in e. Blue circles mark cross-peaks that appear in the NOESY spectrum, whereas not showing a corresponding peak in the zTOCSY. These peaks were marked as inter-residue NOEs and labelled by residue number and proton name. […]
Assuming that 1 had more interactions with the binding pockets, association with 1 would liberate more water molecules during complex formation than 3, thereby producing a more favourable entropy. To investigate this, thermodynamic parameters of mAb interactions with 1 and 3 were measured by ITC (Fig. 7b). […]

[2] = test system: mAb 10A1; test: STD-NMR epitope mapping; assay type: binding, mouse; conditions: 200 μM ligand, 2 μM antibody
Excerpt: To understand antibody binding at molecular-level detail and to identify the functional groups involved in antibody binding, we performed STD-NMR measurements. […] The glucose moiety in 3 contributed weakly to antibody binding around H3 (11%). Despite the low saturation transfer, this interaction appears to be important for antibody binding, as mono-rhamnose 4 was not or only weakly bound by the mAbs in glycan microarray and SPR experiments.
Figure 6 Epitope mapping of glycan–mAb interactions by STD-NMR. (a,b) Recognition of disaccharide 3 by mAb 10A1 shown as Lewis structure and three-dimensional model calculated with Glycam[70]. Colours indicate percentages of STD effects. (c) Recognition patterns of 3 by three mAbs. STD spectra were acquired at 2 s saturation transfer time in the presence of mAbs 2C5, 10A1 and 10D6 (from top to bottom). (d) Competition of trisaccharide 2 by pentasaccharide 1.
Before the STD-NMR studies, proton resonances of oligosaccharides 1–3 were assigned using standard one-dimensional proton spectra, as well as 2D total correlation spectroscopy (2D-TOCSY), correlation spectroscopy, ^1H–^13C heteronuclear single quantum coherence and ^1H–^13C heteronuclear multiple bond correlation spectra at concentrations varying between 5 and 20 mM in D2O. All NMR studies were measured at 298 K on a Varian PremiumCOMPACT 600 MHz spectrometer equipped with a OneNMR probe. For STD-NMR, samples contained 200 μM ligand and 2 μM antibody in 40 mM phosphate buffer (pH 7.0, uncorrected). On-resonance irradiation was set to −0.5 p.p.m. and off-resonance irradiation was set to 80 p.p.m. A 35-ms T1ρ spin-lock filter and a W5 WATERGATE for solvent suppression were applied. The saturation pulse train consisted of a series of Gaussian shaped pulses of 50 ms duration and 1 ms interpulse delay with an irradiation power of 85 Hz. A total of 2,048 scans were recorded. STD-NMR spectra of carbohydrates in the absence of antibody and spectra of antibody only served as negative controls. Here, saturation and relaxation times were set to 2 and 6 s, respectively. STD build-up curves for mAb 10A1 were recorded at saturation transfer times of 0.5, 1, 2, 4 and 6 s, adjusting the prescan delay accordingly. Epitopes for mAbs 2C5 and 10D6 were recorded with a saturation transfer time of 2 s. NMR spectra were processed in MestReNova 9.1 (MestreLab) and data were analysed in OriginPro9 (OriginLab) to obtain the binding epitopes according to Mayer and James[28]. For the competition experiments, 1 was added to samples of 3 or 2 to a final concentration of 200 μM applying a saturation transfer time of 2 s.

## C[C@@H]1O[C@@H](O[C@@H]2[C@@H](O)[C@H](O[C@H]3[C@H](O[C@@H]4O[C@@H](C)[C@H](O)[C@@H](O)[C@H]4O)[C@@H](O)[C@@H](O[C@H]4[C@@H](OCCCCCN)O[C@H](CO)[C@@H](O)[C@@H]4O)O[C@@H]3CO)O[C@H](CO)[C@H]2O)[C@H](O)[C@H](O)[C@H]1O [Compound 1]
[1]
  binding stoichiometry: 2.2

## C[C@@H]1O[C@@H](O[C@@H]2[C@@H](O)[C@H](OCCCCCN)O[C@H](CO)[C@H]2O)[C@H](O)[C@H](O)[C@H]1O [Compound 3, Rha-(1→3)-Glc]
[2]
  normalized STD effect, glucose H3: 11%
  normalized STD effect, rhamnose H2: 78%
  normalized STD effect, rhamnose H3: 99%
  normalized STD effect, rhamnose methyl protons H6, H'6 and H''6: 100%
